Measured values reported in EP0092830A2, “Cephalosporin derivatives, process for their preparation, pharmaceutical compositions containing them and their application” (CIBA-GEIGY AG, priority 1982, dated 1983).

Experiments:
[1] = system: Staphylococcus aureus 10 B; assay: chemotherapeutic efficacy in vivo against systemic infection in mice (method of Zak et al.); conditions: systemic infection in female SPF, MF2 mice; for ED50 Staphylococcus aureus 10 B: s.c.; for ED50: Staphylococcus aureus, 10B
Text: (§1) B. Die chemotherapeutische Wirksamkeit in vivo gegen systemische Infektionen in weiblichen SPF, MF2 Mäusen wurde nach der Methode von Zak, 0. et al., 1979, Drugs Exptl. Clin. Res. 5, 45-59, ermittelt. Die gefundenen EDS50-Werte in Milligramm Substanz pro Kilogramm Maus (mg/kg) für eine Anzahl von Mikroorganismen werden für die oral (p.o.) oder subcutan (s.c.) applizierten, Testverbindungen in der Tabelle 2 angegeben.

Escherichia coli 205 = assay: as above; conditions: systemic infection in female SPF, MF2 mice
Text: as §1

[2] = Escherichia coli, 205, po, p.o.
[3] = Escherichia coli, 205, sc, s.c.

Structure (SMILES) | ED50 Staphylococcus aureus 10 B [1] [mg/kg] | ED50 Escherichia coli 205 (Escherichia coli 205; p.o.) [mg/kg] | ED50 Escherichia coli 205 (Escherichia coli 205; s.c.) | ED50 ([1]; sc) [mg/kg] | ED50 (Escherichia coli 205; [2]) [mg/kg] | ED50 (Escherichia coli 205; [3]) [mg/kg] | ED50 ([1]; po) [mg/kg]
CN(C)CCn1nnnc1SCC1=C(C(=O)O)N2C(=O)[C@@H](NC(=O)C(NS(=O)(=O)CCN)c3csc(N)n3)[C@H]2SC1 (stereo partly drawn) [Beispiel 20, 3-[1-(2-Dimethylaminoäthyl)-1H-tetrazol-5-ylthiomethyl]-7ß-[(2R,S)-2-(2-aminoäthansulfonylamino)-2-(2-aminothiazol-4-yl)-acetamido]-3-cephem-4-carbonsäure] | >30 | 8 | 0,8 mg/kg |  |  |  | 
NCCS(=O)(=O)NC(C(=O)N[C@@H]1C(=O)N2C(C(=O)[O-])=C(CSc3nnnn3CC(=O)O)CS[C@H]12)c1csc(N)n1.[Na+] (stereo partly drawn) [Testverbindung 5, 3-(1-Carboxymethyl-1H-tetrazol-5-ylthiomethyl)-7ß-[(2R,S)-2-(2-aminoäthansulfonylamino)-2-(2-aminothiazol-4-yl)-acetamido]-3-cephem-4-carbonsäure-natriumsalz] | 78 | 2 | 0,45 mg/kg |  |  |  | 
NCCS(=O)(=O)NC(C(=O)N[C@@H]1C(=O)N2C(C(=O)[O-])=C(CSc3nnnn3CS(=O)(=O)O)CS[C@H]12)c1csc(N)n1.[Na+] (stereo partly drawn) [Testverbindung 6, 3-(1-Sulfomethyl-1H-tetrazol-5-ylthiomethyl)-7ß-[(2R,S)-2-(2-aminoäthansulfonylamino)-2-(2-aminothiazol-4-yl)-acetamido]-3-cephem-4-carbonsäurematriumsalz] | >30 | 10 | 6,0 mg/kg |  |  |  | 
CS(=O)(=O)NC(C(=O)N[C@@H]1C(=O)N2C(C(=O)[O-])=C(C[n+]3ccc(C(N)=O)cc3)CS[C@H]12)c1csc(N)n1 (stereo partly drawn) [Testverbindung 9, 3-(4-Carbamoylpyridiniomethyl)-7ß-[(2R,S)-2-(2-aminothiazol-4-yl)-2-methansulfonylaminoacetamido]-3-cephem-4-carbonsäure] | 55 |  | 25 mg/kg |  |  |  | 
CC(=O)OCC1=C(C(=O)O)N2C(=O)[C@@H](NC(=O)C(NS(=O)(=O)CCNC=O)c3csc(N)n3)[C@H]2SC1 (stereo partly drawn) [Testverbindung 39] |  |  |  | 10 | 5.5 | 0.8 | 
CS(=O)(=O)N[C@H](C(=O)N[C@@H]1C(=O)N2C(C(=O)O)=C(COC(N)=O)CS[C@H]12)c1csc(N)n1 [Testverbindung 40] |  |  |  | 3 | 0.9 | 0.1 | 
C=CC(=O)NCCS(=O)(=O)NC(C(=O)N[C@@H]1C(=O)N2C(C(=O)O)=C(CSc3nnnn3C)CS[C@H]12)c1csc(N)n1 (stereo partly drawn) [Testverbindung 41] |  |  |  | 24 | 10 | 2 | 
C=CC(=O)NCCS(=O)(=O)N[C@H](C(=O)N[C@@H]1C(=O)N2C(C(=O)O)=C(COC(N)=O)CS[C@H]12)c1csc(N)n1 [Testverbindung 42] |  |  |  | 15 | 2.5 | 0.1 | 
CC(=O)NCCS(=O)(=O)NC(C(=O)N[C@@H]1C(=O)N2C(C(=O)O)=C(CSc3nnnn3C)CS[C@H]12)c1csc(N)n1 (stereo partly drawn) [Testverbindung 43] |  |  |  | 50 | 8 | 1 | 
CS(=O)(=O)NC(C(=O)N[C@@H]1C(=O)N2C(C(=O)O)=C(CSc3nnnn3CS(=O)(=O)O)CS[C@H]12)c1csc(N)n1 (stereo partly drawn) [Testverbindung 44] |  |  |  | 85 |  | < 1 | 
CS(=O)(=O)NCCS(=O)(=O)NC(C(=O)N[C@@H]1C(=O)N2C(C(=O)O)=C(COC(N)=O)CS[C@H]12)c1csc(N)n1 (stereo partly drawn) [Testverbindung 45] |  |  |  | 55 |  |  | 90
NC(=O)OCC1=C(C(=O)O)N2C(=O)C(NC(=O)C(NS(=O)(=O)CCNS(=O)(=O)c3ccc(N)cc3)c3csc(N)n3)C2SC1 (stereo not drawn) [Testverbindung 46] |  |  |  | 9 |  | < 1 | 
CC(=O)OCC1=C(C(=O)O)N2C(=O)[C@@H](NC(=O)C(NS(=O)(=O)CCNS(=O)(=O)c3ccc(N)cc3)c3csc(N)n3)[C@H]2SC1 (stereo partly drawn) [Testverbindung 47] |  |  |  | 5 | > 30 | 2.8 | 100
